Source: the supplement of paper PMC10331698
± gives the standard deviation of the averaged measurements.

What was measured:
Assay in all cases: level (log10 ratio to DMSO vehicle control); higher = higher biomarker level / cell amount than vehicle control
[1] = compound: C=C(C)C(=O)OCCC(F)(F)C(F)(F)C(F)(F)C(F)(F)C(F)(F)C(F)(F)F [6:2 Fluorotelomer methacrylate]; conditions: in DMSO
Procedure: (§1)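 BioMAP Diversity Plus panel of 12 human primary cell co-culture systems (3C, 4H, LPS, SAg, BT, BF4T, BE3C, CASM3C, HDF3CGF, KF3CT, MyoF, Mphg). Compounds were added 1 h before stimulation and left for 24 h (MyoF 48 h; BT 72 h for soluble read-outs or 6 d for IgG). Biomarkers were read by ELISA, cytotoxicity by SRB, PBMC viability and proliferation by Alamar Blue. Each well value was divided by the mean of 8 DMSO control wells on the same plate and log10 transformed; duplicate blinded samples were tested at 4 concentrations.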

[2] = compound: C=CC(=O)OCC(F)(F)C(F)(F)C(F)(F)COC(=O)C=C [1H,1H,5H,5H-Perfluoro-1,5-pentanediol diacrylate]; conditions: 6700 nM; in DMSO
Procedure: as §1

[3] = compound: COC(=O)C(F)(F)C(F)(F)OC(F)(C(F)(F)F)C(F)(F)OC(F)=C(F)F [Methyl perfluoro(3-(1-ethenyloxypropan-2-yloxy)propanoate)]; conditions: in DMSO
Procedure: as §1

[4] = compound: FC(F)(F)C(F)(F)C(F)(F)C(F)(F)C(F)(F)C(F)(F)C(F)(F)I [1-Iodopentadecafluoroheptane]; conditions: in DMSO
Procedure: as §1

[5] = compound: FC(F)(F)C(F)(F)C(F)(F)C(F)(F)C(F)(F)C(F)(F)CC1CO1 [3-(Perfluorohexyl)-1,2-epoxypropane]; conditions: in DMSO
Procedure: as §1

[6] = compound: FC(F)(F)C(F)(F)C(F)(F)CC1CO1 [1H,1H-Heptafluorobutyl epoxide]; conditions: in DMSO
Procedure: as §1

Heptafluorobutyl iodide = compound: FC(F)(F)C(F)(F)C(F)(F)CI [Heptafluorobutyl iodide]; conditions: in DMSO
Procedure: as §1

[7] = compound: FC(F)(F)C(F)(F)CNCC(F)(F)C(F)(F)F [Bis(1H,1H-perfluoropropyl)amine]; conditions: in DMSO
Procedure: as §1

Octafluoroadipamide = compound: NC(=O)C(F)(F)C(F)(F)C(F)(F)C(F)(F)C(N)=O [Octafluoroadipamide]; conditions: in DMSO
Procedure: as §1

Nonafluoropentanamide = compound: NC(=O)C(F)(F)C(F)(F)C(F)(F)C(F)(F)F [Nonafluoropentanamide]; conditions: in DMSO
Procedure: as §1

[8] = compound: NC(=O)C(F)(F)C(F)(F)C(F)(F)C(F)F; conditions: in DMSO
Procedure: as §1

[9] = compound: NS(=O)(=O)C(F)(F)C(F)(F)C(F)(F)C(F)(F)C(F)(F)C(F)(F)F [Perfluorohexanesulfonamide]; conditions: in DMSO
Procedure: as §1

[10] = compound: O=C(O)C(F)(F)C(F)(F)C(F)(F)C(F)(F)C(F)(F)C(F)(F)C(F)(F)C(F)(F)C(F)(F)C(F)F [11-H-Perfluoroundecanoic acid]; conditions: in DMSO
Procedure: as §1

[11] = compound: O=C(O)C=CC(F)(C(F)(F)F)C(F)(F)F [3-(Perfluoroisopropyl)-2-propenoic acid]; conditions: in DMSO
Procedure: as §1

[12] = compound: O=S(=O)(Cl)C(F)(F)C(F)(F)C(F)(F)C(F)(F)C(F)(F)C(F)(F)C(F)(F)C(F)(F)F [Perfluoro-1-octanesulfonyl chloride]; conditions: in DMSO
Procedure: as §1

[13] = compound: O=S(=O)(F)C(F)(F)C(F)(F)C(F)(F)C(F)(F)C(F)(F)C(F)(F)C(F)(F)C(F)(F)F [Perfluorooctanesulfonyl fluoride]; conditions: in DMSO
Procedure: as §1

[14] = compound: O=S(=O)(O)C(F)(F)C(F)(F)C(F)(F)C(F)(F)C(F)(F)C(F)(F)C(F)(F)C(F)(F)C(F)(F)C(F)(F)F [Sodium perfluorodecanesulfonate]; conditions: in DMSO
Procedure: as §1

[15] = compound: O=S(=O)(O)CCC(F)(F)C(F)(F)C(F)(F)C(F)(F)C(F)(F)C(F)(F)F [6:2 Fluorotelomer sulfonic acid]; conditions: in DMSO
Procedure: as §1

Hexafluoroamylene glycol = compound: OCC(F)(F)C(F)(F)C(F)(F)CO [Hexafluoroamylene glycol]; conditions: in DMSO
Procedure: as §1

Test System: lMphg:IL-1alpha
- level (log10) ([1]; 6700 nM): -0.0445 ± 0.076
- level (log10) ([1]; 20000 nM): -0.03 ± 0.02
- level (log10) ([1]; 60000 nM): -0.0305 ± 0.069
- level (log10) [2]: 0.045 ± 0.024
- level (log10) ([3]; 6700 nM): 0.0435 ± 0.035
- level (log10) ([3]; 20000 nM): 0.118 ± 0.0021
- level (log10) ([4]; 6700 nM): 0.03 ± 0.045
- level (log10) ([4]; 20000 nM): 0.014 ± 0.0085
- level (log10) ([5]; 6700 nM): -0.0115 ± 0.046
- level (log10) ([5]; 20000 nM): -0.013 ± 0.021
- level (log10) ([5]; 60000 nM): -0.0015 ± 0.011
- level (log10) ([6]; 6700 nM): -0.012 ± 0.0071
- level (log10) ([6]; 20000 nM): -0.025 ± 0.0071
- level (log10) ([6]; 60000 nM): -0.002 ± 0.028
- level (log10) (Heptafluorobutyl iodide; 6700 nM): 0.029 ± 0.027
- level (log10) (Heptafluorobutyl iodide; 20000 nM): 0.0335 ± 0.03
- level (log10) (Heptafluorobutyl iodide; 60000 nM): 0.0305 ± 0.019
- level (log10) ([7]; 6700 nM): -0.025 ± 0.0071
- level (log10) ([7]; 20000 nM): -0.031 ± 0.0057
- level (log10) ([7]; 60000 nM): 0.0295 ± 0.059
- level (log10) (Octafluoroadipamide; 6700 nM): -0.0135 ± 0.016
- level (log10) (Octafluoroadipamide; 20000 nM): -0.044 ± 0.016
- level (log10) (Octafluoroadipamide; 60000 nM): -0.014 ± 0.065
- level (log10) (Nonafluoropentanamide; 6700 nM): 0.0035 ± 0.047
- level (log10) (Nonafluoropentanamide; 20000 nM): -0.0325 ± 0.047
- level (log10) (Nonafluoropentanamide; 60000 nM): -0.017 ± 0.048
- level (log10) ([8]; 6700 nM): -0.0425 ± 0.023
- level (log10) ([8]; 20000 nM): -0.0465 ± 0.00071
- level (log10) ([8]; 60000 nM): 0.0365 ± 0.047
- level (log10) ([9]; 6700 nM): 0.019 ± 0.052
- level (log10) ([9]; 20000 nM): 0.114 ± 0.016
- level (log10) ([9]; 60000 nM): 0.148 ± 0.0028
- level (log10) ([10]; 6700 nM): -0.024 ± 0.024
- level (log10) ([10]; 20000 nM): -0.008 ± 0.0014
- level (log10) ([11]; 6700 nM): -0.0055 ± 0.037
- level (log10) ([11]; 20000 nM): 0.0095 ± 0.016
- level (log10) ([11]; 60000 nM): -0.0025 ± 0.012
- level (log10) ([12]; 6700 nM): -0.0225 ± 0.033
- level (log10) ([12]; 20000 nM): -0.005 ± 0.042
- level (log10) ([12]; 60000 nM): 0.021 ± 0.088
- level (log10) ([13]; 6700 nM): 0.01 ± 0.013
- level (log10) ([13]; 20000 nM): -0.0025 ± 0.005
- level (log10) ([13]; 60000 nM): 0.0185 ± 0.019
- level (log10) ([14]; 1500 nM): 0.0345 ± 0.021
- level (log10) ([14]; 4400 nM): -0.002 ± 0.028
- level (log10) ([14]; 13000 nM): 0.032 ± 0.013
- level (log10) ([14]; 40000 nM): 0.0505 ± 0.03
- level (log10) ([15]; 6700 nM): 0.0395 ± 0.05
- level (log10) ([15]; 20000 nM): 0.0235 ± 0.035
- level (log10) ([15]; 60000 nM): 0.0215 ± 0.039
- level (log10) (Hexafluoroamylene glycol; 6700 nM): 0.005 ± 0.02
- level (log10) (Hexafluoroamylene glycol; 20000 nM): 0.015 ± 0.027
- level (log10) (Hexafluoroamylene glycol; 60000 nM): 0.029 ± 0.061

Test System: lMphg:SRB-Mphg
- level (log10) ([1]; 6700 nM): 0.01 ± 0.011
- level (log10) ([1]; 20000 nM): 0.0095 ± 0.0092
- level (log10) ([1]; 60000 nM): 0.0105 ± 0.0021
- level (log10) [2]: 0.0135 ± 0.00071
- level (log10) ([3]; 6700 nM): -0.011 ± 0.0057
- level (log10) ([3]; 20000 nM): 0.006 ± 0.017
- level (log10) ([4]; 6700 nM): 0.005 ± 0.018
- level (log10) ([4]; 20000 nM): 0.0125 ± 0.011
- level (log10) ([5]; 6700 nM): 0.0095 ± 0.0092
- level (log10) ([5]; 20000 nM): 0.0035 ± 0.012
- level (log10) ([5]; 60000 nM): 0.013 ± 0.0014
- level (log10) ([6]; 6700 nM): 0.012 ± 0.0085
- level (log10) ([6]; 20000 nM): -0.0005 ± 0.021
- level (log10) ([6]; 60000 nM): -0.0085 ± 0.005
- level (log10) (Heptafluorobutyl iodide; 6700 nM): -0.0065 ± 0.005
- level (log10) (Heptafluorobutyl iodide; 20000 nM): 0.0055 ± 0.0078
- level (log10) (Heptafluorobutyl iodide; 60000 nM): 0.007 ± 0.031
- level (log10) ([7]; 6700 nM): -0.025 ± 0.03
- level (log10) ([7]; 20000 nM): -0.058 ± 0.023
- level (log10) ([7]; 60000 nM): -0.0025 ± 0.037
- level (log10) (Octafluoroadipamide; 6700 nM): -0.02 ± 0.027
- level (log10) (Octafluoroadipamide; 20000 nM): -0.0265 ± 0.018
- level (log10) (Octafluoroadipamide; 60000 nM): 0.003 ± 0.018
- level (log10) (Nonafluoropentanamide; 6700 nM): 0.005 ± 0.0085
- level (log10) (Nonafluoropentanamide; 20000 nM): -0.005 ± 0.014
- level (log10) (Nonafluoropentanamide; 60000 nM): -0.012 ± 0.017
- level (log10) ([8]; 6700 nM): 0.0005 ± 0.013
- level (log10) ([8]; 20000 nM): -0.0045 ± 0.015
- level (log10) ([8]; 60000 nM): 0.013 ± 0.027
- level (log10) ([9]; 6700 nM): 0.002 ± 0.0028
- level (log10) ([9]; 20000 nM): -0.021 ± 0.0057
- level (log10) ([9]; 60000 nM): -0.0625 ± 0.013
- level (log10) ([10]; 6700 nM): 0.008 ± 0.011
- level (log10) ([10]; 20000 nM): -0.0095 ± 0.03
- level (log10) ([11]; 6700 nM): 0.0005 ± 0.013
- level (log10) ([11]; 20000 nM): 0.004 ± 0.0085
- level (log10) ([11]; 60000 nM): 0.0075 ± 0.015
- level (log10) ([12]; 6700 nM): 0.0025 ± 0.013
- level (log10) ([12]; 20000 nM): 0.004 ± 0.016
- level (log10) ([12]; 60000 nM): -0.0185 ± 0.025
- level (log10) ([13]; 6700 nM): 0.0065 ± 0.005
- level (log10) ([13]; 20000 nM): -0.004
- level (log10) ([13]; 60000 nM): 0.004 ± 0.0042
- level (log10) ([14]; 1500 nM): -0.067 ± 0.12
- level (log10) ([14]; 4400 nM): -0.0945 ± 0.083
- level (log10) ([14]; 13000 nM): -0.119 ± 0.053
- level (log10) ([14]; 40000 nM): -0.057 ± 0.13
- level (log10) ([15]; 6700 nM): 0.0065 ± 0.0064
- level (log10) ([15]; 20000 nM): 0.0135 ± 0.0078
- level (log10) ([15]; 60000 nM): 0.0025 ± 0.036
- level (log10) (Hexafluoroamylene glycol; 6700 nM): 0.0005 ± 0.0092
- level (log10) (Hexafluoroamylene glycol; 20000 nM): 0.0035 ± 0.015
- level (log10) (Hexafluoroamylene glycol; 60000 nM): 0.007 ± 0.013
